Active and inactive are the calls of the source.
Key:
[1] = SAR analysis of small molecule activators of Apaf-1 using a LZ-Caspase-9/Caspase-3 Fluorescent Selectivity assay - Set 2.; format: functional; settings: read-out: EC50_Mean
[2] = biological target: T1, Apoptotic protease-activating factor 1 (Homo sapiens, UniProt O14727); assay: SAR analysis of small molecule Activators of Apaf-1 in a Fluorescent assay - set 2.; format: functional; settings: read-out: EC50_Mean
T1 sequence (O14727 whole entry): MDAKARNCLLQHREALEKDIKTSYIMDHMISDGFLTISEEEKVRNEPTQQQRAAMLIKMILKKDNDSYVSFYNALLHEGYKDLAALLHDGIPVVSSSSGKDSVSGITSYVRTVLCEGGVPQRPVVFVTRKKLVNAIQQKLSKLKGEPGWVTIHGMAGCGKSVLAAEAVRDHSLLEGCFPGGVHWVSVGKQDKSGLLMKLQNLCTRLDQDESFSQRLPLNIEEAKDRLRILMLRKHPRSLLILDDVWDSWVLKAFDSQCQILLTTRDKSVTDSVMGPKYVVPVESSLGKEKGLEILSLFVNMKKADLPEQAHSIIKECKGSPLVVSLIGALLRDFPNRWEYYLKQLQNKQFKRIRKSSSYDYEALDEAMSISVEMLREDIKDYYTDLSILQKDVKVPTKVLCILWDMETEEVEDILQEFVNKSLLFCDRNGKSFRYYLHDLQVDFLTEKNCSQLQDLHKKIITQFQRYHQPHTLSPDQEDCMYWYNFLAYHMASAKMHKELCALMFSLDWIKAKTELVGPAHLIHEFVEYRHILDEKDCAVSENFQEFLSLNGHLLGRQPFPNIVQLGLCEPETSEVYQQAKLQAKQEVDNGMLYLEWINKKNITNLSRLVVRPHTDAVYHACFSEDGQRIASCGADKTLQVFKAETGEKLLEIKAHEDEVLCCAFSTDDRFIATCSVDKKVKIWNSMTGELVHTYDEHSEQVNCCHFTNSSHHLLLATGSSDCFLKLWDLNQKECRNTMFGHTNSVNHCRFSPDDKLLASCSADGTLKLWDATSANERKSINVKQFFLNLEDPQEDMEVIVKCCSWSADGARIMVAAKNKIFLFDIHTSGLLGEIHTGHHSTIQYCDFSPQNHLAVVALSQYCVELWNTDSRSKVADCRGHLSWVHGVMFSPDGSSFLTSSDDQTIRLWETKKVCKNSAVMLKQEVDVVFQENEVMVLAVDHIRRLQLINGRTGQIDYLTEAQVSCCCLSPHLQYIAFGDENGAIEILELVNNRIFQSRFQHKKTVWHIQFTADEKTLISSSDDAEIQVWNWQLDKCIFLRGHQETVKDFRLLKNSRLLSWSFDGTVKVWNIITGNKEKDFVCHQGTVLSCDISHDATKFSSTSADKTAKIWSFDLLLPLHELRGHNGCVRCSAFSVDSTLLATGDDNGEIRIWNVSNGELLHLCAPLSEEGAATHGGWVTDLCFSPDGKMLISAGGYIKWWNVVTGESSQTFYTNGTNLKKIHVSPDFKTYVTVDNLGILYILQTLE

- EC50 [1]: > 100 µM (inactive)
- EC50 [2]: > 100 µM (inactive)
SMILES: O=C(O)C1CC(c2ccccc2O)=NO1 (configuration not stated)

— ChEMBL document CHEMBL1201862, “PubChem BioAssay data set” (2004)
